# Data taken from US6774109B2, “Inhibition of amylin release” (Societe de Conseils de Recherches et d'Applications …, priority 1995, dated 2004).
# Read-outs that look alike come from different tables or passages of the source. Non-standard residues stand in square brackets, D forms with d. Residues, ends and D or L forms follow the SMILES beside them. *: point of attachment. X1 = O=C(CN1CCN(CCO)CC1)*
# Columns and labels:
# rat SSTR-2 = target: T1, rat SSTR-2 (Rattus norvegicus, UniProt P30680); experiment: Rat SSTR-2 binding assay ([125I-Tyr]MK-678, AR42J cell membranes)
# T1 construct: Crude membranes were prepared by homogenizing AR42J cells; host or cells: AR42J rat pancreatic acinar tumor cells
# T1 sequence (P30680 whole entry): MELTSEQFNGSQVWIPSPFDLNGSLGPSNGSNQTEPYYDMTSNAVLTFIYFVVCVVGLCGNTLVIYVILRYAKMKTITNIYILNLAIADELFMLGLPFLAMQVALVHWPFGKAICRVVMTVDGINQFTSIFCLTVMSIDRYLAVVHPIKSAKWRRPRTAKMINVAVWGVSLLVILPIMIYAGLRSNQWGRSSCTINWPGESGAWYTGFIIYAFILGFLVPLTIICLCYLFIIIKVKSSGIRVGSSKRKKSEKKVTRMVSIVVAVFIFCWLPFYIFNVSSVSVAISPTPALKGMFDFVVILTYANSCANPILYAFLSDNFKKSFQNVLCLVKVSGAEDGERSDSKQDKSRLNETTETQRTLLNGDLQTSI
# Experimental: Crude membranes were prepared by homogenizing AR42J cells (ATCC, Rockville, Md.; ATCC No. CRL1992) in 20 ml of ice-cold 50 mM Tris-HCl (Buffer A) with a POLYTRON homogenizer (Brinkmann Instruments, Westbury, N.Y.) at setting 6, for 15 sec. Additional Buffer A was added to obtain a final volume of 40 ml, and the homogenate was centrifuged in a Sorval SS-34 rotor (DuPont, Newtown, Conn.) at 39,000 g for 10 min at 0-4° C. The resulting supernatant was decanted and discarded. The pellet was rehomogenized in ice-cold Buffer A, diluted, and centrifuged as before. The final pellet was resuspended in the 10 mM Tris HCl and held on ice for the receptor binding assay.
# Aliquots of the membrane preparation were incubated for 90 min at 25° C. with 0.05 nM [^125I-Tyr]MK-678 (2000 Ci/mmol) in 50 mM HEPES (pH 7.4) containing a test peptide of various concentrations (e.g., 10^−11 to 10^−6 M), 10 mg/ml bovine serum albumin (fraction V) (Sigma Chemical Co., St. Louis, Mo.), MgCl2 (5 mM), Trasylol (200 KIU/ml), bacitracin (0.02 mg/ml), and phenylmethyl-sulphonyl fluoride (0.02 mg/ml). The final assay volume was 0.3 ml. The incubations were terminated by rapid filtration through GF/C filters (pre-soaked in 0.3% polyethylenimine for 30 min) using a filtration manifold (Brandel, Gaithersburg, Md.).
# human SSTR-5 = target: T2, human SSTR-5 (Homo sapiens, UniProt P35346); experiment: Human SSTR-5 binding assay (transfected CHO-K1 cells); details: for SSTR-2/SSTR-5 (ratio of Ki's): human SSTR-2 Ki / human SSTR-5 Ki
# T2 construct: expressed in transfected cells
# T2 sequence (P35346 whole entry): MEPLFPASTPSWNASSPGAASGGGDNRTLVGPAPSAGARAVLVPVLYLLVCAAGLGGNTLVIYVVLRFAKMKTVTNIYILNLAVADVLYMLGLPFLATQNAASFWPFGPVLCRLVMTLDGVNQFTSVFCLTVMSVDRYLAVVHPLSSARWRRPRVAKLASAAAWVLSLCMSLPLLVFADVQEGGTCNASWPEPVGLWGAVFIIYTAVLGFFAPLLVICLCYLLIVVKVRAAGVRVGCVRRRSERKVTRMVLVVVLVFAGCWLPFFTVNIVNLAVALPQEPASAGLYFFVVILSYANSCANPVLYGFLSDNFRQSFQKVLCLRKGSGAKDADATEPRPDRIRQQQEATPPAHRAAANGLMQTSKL
# Text: The human SSTR-5 cDNA clone has been described in the literature. See Panetta, et al., Mol Pharmacol., 45:417-427 (1994); O'Carroll, et al., Mol Pharmacol, 46:291-298 (1994); Yamada, et al., Biochem. Biophys. Res. Commun., 195:844 (1993) [FIG. 1 depicts the DNA sequence of the human SSTR-5.] Using a sense 5′-oligonucleotide primer, immediately preceeding the start codon (residue 30-50), and an antisense 3′-oligonucleotide primer, immediately preceeding the stop codon (residues 1180-1200), a 1170 base pair fragment comprising the full-length coding sequence of the receptor was obtained by standard Reverse-transcription PCR. See Yamada, et al., Biochem. Biophys. Res. Commun., 195:844 (1993) [FIG. 1 depicts the DNA sequence of the human SSTR-5]; Innis, et al., PCR Protocols, A Guide to Methods and Applications, Academic Press, 1990. The identity of the cDNA fragment was verified by DNA sequencing using the dideoxy-chain termination method [Sanger, et al., Proc Natl Acad Sci USA., 74:5463 (1977)] with the Sequenase kit (United States Biochemicals, Arlington Heights, Ill.).
# The human SSTR-5 cDNA fragment was inserted into a mammalian expression vector, pCMV to generate the expression plasmid pCMV-human SSTR-5 by blunt-end ligation.
# Membranes from the stably transfected cell line were used in the rat SSTR-5 binding protocol described above.
# rat SSTR-5 [1] = target: T3, rat SSTR-5 (Rattus norvegicus, UniProt P30938); experiment: Rat SSTR-5 binding assay ([125I-Tyr11]somatostatin-14, rat olfactory bulb membranes)
# T3 construct: Crude membranes were prepared by homogenization of rat olfactory bulb cells; tissue Zivic-Miller Laboratory, Inc; host or cells: rat olfactory bulb
# T3 sequence (P30938 1-363): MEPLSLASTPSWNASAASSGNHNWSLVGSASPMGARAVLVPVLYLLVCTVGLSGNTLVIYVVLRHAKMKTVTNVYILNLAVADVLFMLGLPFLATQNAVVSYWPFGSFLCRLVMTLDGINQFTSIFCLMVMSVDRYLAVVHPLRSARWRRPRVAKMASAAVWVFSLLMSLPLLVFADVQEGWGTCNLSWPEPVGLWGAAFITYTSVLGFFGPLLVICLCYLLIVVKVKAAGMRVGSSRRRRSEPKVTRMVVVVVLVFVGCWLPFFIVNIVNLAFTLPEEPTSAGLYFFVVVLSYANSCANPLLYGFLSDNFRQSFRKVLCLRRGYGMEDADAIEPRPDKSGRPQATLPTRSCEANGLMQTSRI
# Experimental: (§1) Crude membranes were prepared by homogenization of rat olfactory bulb cells (Zivic-Miller Laboratory, Inc., Zellenople, Pa.) in 20 ml of ice-cold 50 mM Tris-HCl with a POLYTRON homogenizer (setting 6, 15 sec). Buffer was added to obtain a final volume of 40 ml, and the homogenate was centrifuged in a Sorval SS-34 rotor at 39,000 g for 10 min at 0-4° C. The resulting supernatant was decanted and discarded. The pellet was rehomogenized in ice-cold buffer, diluted, and centrifuged as before. The final pellet was resuspended in the 10 mM Tris HCl and held on ice for the receptor binding assay.
# (§2) The final assay volume was 0.3 ml. The incubations were terminated by rapid filtration through GF/C filters (pre-soaked in 0.3% polyethylenimine for 30 min) using a Brandel filtration manifold. Each tube and filter were then washed three times with 5 ml aliquots of ice-cold buffer.
# rat SSTR-5 [2] = experiment: as above; details: rat SSTR-2 Ki / rat SSTR-5 Ki
# Experimental: as §1, §2
# human SSTR-2 = human SSTR-2 (Homo sapiens, UniProt P30874); experiment: Human SSTR-2 binding assay (transfected CHO-K1 cells)
# human SSTR-2, sequence (P30874 whole entry, the tested form may be a part): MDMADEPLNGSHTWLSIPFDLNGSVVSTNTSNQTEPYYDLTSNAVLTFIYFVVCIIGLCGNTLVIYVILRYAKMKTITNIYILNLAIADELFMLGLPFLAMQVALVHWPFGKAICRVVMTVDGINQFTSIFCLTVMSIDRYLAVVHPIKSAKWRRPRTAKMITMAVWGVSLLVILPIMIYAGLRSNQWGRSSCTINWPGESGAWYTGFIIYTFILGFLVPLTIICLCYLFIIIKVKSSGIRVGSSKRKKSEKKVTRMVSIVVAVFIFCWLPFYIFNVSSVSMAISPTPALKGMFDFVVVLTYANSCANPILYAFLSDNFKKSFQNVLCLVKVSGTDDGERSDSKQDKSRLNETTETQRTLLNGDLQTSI
# Experimental: CHO-K1 (ovary, Chinese hamster) cells were obtained from the American Type Culture Collection, Rockville, Md. […] The cells were grown and maintained in Ham's F12 media (Gibco BRL, Grand Island, N.Y.) supplemented with 10% fetal bovine serum under standard tissue culture conditions.
# For transfection, the cells were seeded at a density 1×10^6/60 cm^2 plate (Baxter Scientific Products, McGaw Park, Ill.). DNA mediated transfection was carried out using the calcium phosphate co-precipitation method (Ausubel, et al., Current Protocols in Molecular Biology, John Wiley & Sons, 1987). The plasmid pRSV-neo (ATCC; ATCC No. 37198) was included as a selectable marker at 1/10 the concentration of the expression plasmid. CHO-K1 clonal cell lines that have stably inherited the transfected DNA were selected for growth in Ham's F12 media containing 10% fetal bovine serum and 0.5 mg/ml of G418 (Sigma Chemical Co., St. Louis, Mo.). The cells were ring-cloned and expanded in the same media for analysis.
# rat Pancreas cells = experiment: Amylin release inhibition assay using rat pancreas cells (isolated perfused pancreas); assay type: cell-based; details: 16.7 mM glucose, 10 nM test compound
# Experimental: Sprague-Dawley rats (male, 200-300 g) (Harlan-Olac, Bicester, Oxon, UK) were anaesthetized with sodium pentobarbitone (60 mg/kg). […] The pancreases were perfused, as described in Dunmore, et al., J. Endocrinol., 1993, 137, 375-381, with modified Krebs-Ringer bicarbonate buffer containing 3% dextran T40 (Pharmacia, Milton Keynes, Bucks, UK) and 1% high purity bovine serum albumin (Sigma, Poole, Dorset, UK). After an initial 15-min period to allow for stabilization, the isolated pancreases were perfused at sequential 10 min. intervals, at a rate of 4.5-5.0 ml/min, with the following buffer compositions: 1) Buffer 1: Krebs-Ringer bicarbonate buffer containing 5.6 mM glucose (to examine baseline amylin secretion); 2) Buffer 2: Krebs-Ringer bicarbonate buffer containing 16.7 mM glucose (to examine high glucose stimulated secretion); 3) Buffer 3: Krebs-Ringer bicarbonate buffer containing 16.7 mM glucose in the presence of 10 nM of test compound (to examine the activity of test compounds on high glucose stimulated amylin secretion); and 4) Buffer 2: Krebs-Ringer bicarbonate buffer containing 16.7 mM glucose (to re-examine high glucose stimulated amylin secretion in order to assess the reversibility of the activity of the test compounds).
# Fractions of the perfusate were collected on ice every minute in the presence of 400 KIU/ml aprotinin (Bayer, Hayward's Heath, W. Sussex, UK). Fractions were stored at −20° C. until assay. Perfusates collected were divided into 3×1.5 ml aliquots and assayed for amylin by radioimmunoassay as described in Dunmore, et al., J. Endocrinol., 1993, 137:375. Amylin was assayed using reagents supplied by Peninsula Laboratories Ltd. (St. Helens, Merseyside, UK). These reagents include ^125I-labelled amylin, rabbit anti-rat amylin antibody, and rat amylin. Bound amylin was precipitated using goat anti-rabbit second antibody—coupled cellulose (Sac-Cal, IDS, Boldon, Tyneawear, UK).
# [3] = rat, AR42J cell membranes, radioligand [125I-Tyr]MK-678 0.05 nM, read-out: Ki SSTR-2
compound,measurement,setting,value
"C[C@@H](O)[C@H](NC(=O)[C@H](Cc1ccccc1)NC(=O)[C@@H](NC(=O)[C@H](CCCCN)NC(=O)[C@@H](Cc1c[nH]c2ccccc12)NC(=O)[C@H](Cc1ccccc1)NC(=O)[C@H](Cc1ccccc1)NC(=O)[C@H](N)Cc1ccccc1)[C@@H](C)O)C(=O)O [Analog I, H-D-Phe-Phe-Phe-D-Trp-Lys-Thr-Phe-Thr-OH] (H-[dF]FF[dW]KTFT-OH)",Ki,rat SSTR-2; [3],37.2 nM
same,Ki,human SSTR-5,12.4 nM
same,SSTR-2/SSTR-5 (ratio of Ki's),human SSTR-5,1.14
same,Ki,rat SSTR-5 [1]; read-out: Ki SSTR-5,3.57 nM
same,SSTR-2/SSTR-5 (ratio of Ki's),rat SSTR-5 [2],10.4
same,Ki,human SSTR-2,14.2 nM
C[C@@H](O)[C@H](NC(=O)[C@H](Cc1ccccc1)NC(=O)[C@@H](NC(=O)[C@H](CCCCN)NC(=O)[C@@H](Cc1c[nH]c2ccccc12)NC(=O)[C@H](Cc1ccccc1)NC(=O)[C@H](Cc1ccccc1)NC(=O)[C@@H](Cc1ccccc1)NC(=O)CN1CCN(CCO)CC1)[C@@H](C)O)C(N)=O [Analog II] (X1-[dF]FF[dW]KTFT-NH2),Ki,rat SSTR-2; [3],305 nM
same,Ki,"human SSTR-5; human receptor in CHO-K1 cells, LC 0.05 nM, LEC 0.18 nM, read-out: Ki SSTR-5",1.29 nM
same,Ki,rat SSTR-5 [1]; read-out: Ki SSTR-5,5.38 nM
same,Ki,human SSTR-2,4.15 nM
"CC(C)[C@@H]1NC(=O)[C@H](CCCCN)NC(=O)[C@@H](Cc2c[nH]c3ccccc23)NC(=O)[C@H](Cc2ccc(O)cc2)NC(=O)[C@@H](NC(=O)[C@H](N)Cc2ccc3ccccc3c2)CSSC[C@@H](C(=O)N[C@H](C(N)=O)[C@@H](C)O)NC1=O [BIM-23014, H-D-P-Nal-Cys-Tyr-D-Trp-Lys-Val-Cys-Ser-NH2, reference compound]",Ki,rat SSTR-2,0.34 nM
same,Ki,rat SSTR-5 [1],64.8 nM
same,effect on glucose-induced amylin secretion (in words),rat Pancreas cells,no effect
same,Ki,human SSTR-2,1.09 nM
"C[C@@H](O)[C@H](NC(=O)[C@H](Cc1ccccc1)NC(=O)[C@@H](NC(=O)[C@H](CCCCN)NC(=O)[C@@H](Cc1c[nH]c2ccccc12)NC(=O)[C@H](Cc1ccccc1)NC(=O)[C@H](Cc1ccccc1)NC(=O)[C@H](N)Cc1ccccc1)[C@@H](C)O)C(N)=O [BIM-23052, H-D-Phe-Phe-Phe-D-Trp-Lys-Thr-Phe-Thr-NH2] (H-[dF]FF[dW]KTFT-NH2)",Ki,rat SSTR-2,8.04 nM
same,SSTR-2/SSTR-5 (ratio of Ki's),human SSTR-5,11.5
same,Ki,rat SSTR-5 [1]; read-out: Ki SSTR-5,3.16 nM
same,SSTR-2/SSTR-5 (ratio of Ki's),rat SSTR-5 [2],2.54
same,decrease in glucose stimulated amylin secretion,rat Pancreas cells,78%
same,Ki,human SSTR-2,14.1 nM
"C[C@@H](O)[C@@H]1NC(=O)[C@H](CCCCN)NC(=O)[C@@H](Cc2c[nH]c3ccccc23)NC(=O)[C@H](Cc2ccccc2)NC(=O)[C@@H](NC(=O)[C@H](N)Cc2ccccc2)CSSC[C@@H](C(=O)N[C@H](CO)[C@@H](C)O)NC1=O [SMS 201-995, H-D-Phe-Cys-Phe-D-Trp-Lys-Thr-Cys-Threoninol, reference compound]",Ki,rat SSTR-5 [1],9.14 nM
Somatostatin-14 [reference compound],SSTR-2/SSTR-5 (ratio of Ki's),human SSTR-5,0.20
same,SSTR-2/SSTR-5 (ratio of Ki's),rat SSTR-5 [2],0.34
same,effect on glucose-induced amylin secretion (in words),rat Pancreas cells,inhibited glucose-induced amylin secretion
